Entries after “also recorded” stand apart in the source; their conditions may differ. Where a name gives a salt, the structure may show the parent alone.

The nature of data set [1]: Gelation of steroid drugs and alkaline-earth metal ion. Particulars: molar ratio steroid drug:metal ion 1:1. Further details: key: L indicates that a liquid was formed; P indicates that a precipitate was formed; H indicates that a hydrogel was formed; L/H indicates that a mixture of a hydrogel and a liquid was formed; P->H indicates that a precipitate formed initially which converted to a hydrogel overnight. Format: physicochemical. As for the experimental part: The molar ratio of the steroid drug to the alkaline earth metal ion was 1:1 for all of the above samples.
Preparation of hydrogel. […] To form the DexP-hydrogel containing bupivacaine chlorhydrate (BPV), a DexP aqueous solution (100 mM) was added to a mixture of bupivacaine (10 mg/mL; approx. 30.8 mM) and Ca^2+ (100 mM) in a volume ratio of 1:2:1.

For the next data set, the system named is C2C12 cells. Description: Cell viability (MTS assay, Transwell). Conditions: 24 h exposure, hydrogels [DexP]=25 mM. Format: cell-based. As for the experimental part: The cytotoxicity of DexP-hydrogels ([DexP]:[Ca^2+]=2:1, 1:1, or 2:3), and free DexP were assessed by exposing C2C12 cells to them for 24 h in a Transwell® system where the gels were separated from the cells by a permeable membrane (FIG. 12) and measuring cell viability by MTS (3-(4,5-dimethylthiazol-2-yl)-5-(3-carboxymethoxyphenyl)-2-(4-sulfophenyl)-2H-tetrazolium) assay. […] The concentration of free DexP in the cell culture media incubated with the DexP-hydrogel ([DexP]:[Ca^2+]=2:1) for 24 h was 2.5 mg/mL (calculated from the release profile in FIG. 3), and the reduction of cell viability in that group was similar to that from 2.5 mg/mL of free DexP (p=0.31, p<0.005 compared to untreated cells). 25 mM DexP-hydrogels with the ratio [DexP]:[Ca^2+]=1:1 were used in subsequent experiments.
Cell viability. In vitro cell viability in the presence of DexP hydrogels was investigated in C2C12 cells (American Type Culture Collection, Manassas, Va.). In brief, C2C12 cells were grown and maintained in DMEM with 20% FBS and 1% Penicillin Streptomycin (Invitrogen, Waltham, Mass.) at 37° C. in 5% CO2. Cells were seeded into the lower chamber of 24-well Transwell® plates (Costar 3470, pore size 0.4 micrometers, Corning Incorporated, Corning, N.Y.) at 50,000 cells/mL in DMEM with 2% horse serum and 1% penicillin streptomycin and incubated for 14 days to allow differentiation into myotubes. […]

The test system of data set [2] is sciatic nerve and surrounding tissues. Description: Histology: myotoxicity and inflammation scores. Format: in vivo, rats. Particulars: for Inflammation (range 0-4) / Myotoxicity (range 0-6): median with 25th and 75th percentiles, bupivacaine 5.0 mg/mL. An excerpt: 4 or 14 days after injection (n=6 at each time point), the sciatic nerve and surrounding tissues were harvested and processed for histology by hematoxylin-eosin staining (FIG. 6, Table 2). Overall, tissue reaction to all formulations was relatively benign.
Histology. Rats were euthanized by carbon dioxide 4 days or 14 days after injection. The nerve and surrounding tissue were harvested and underwent standard procedures to produce hematoxylin and eosin-stained slides. The samples were scored for inflammation (0-4) and myotoxicity (0-6). The inflammation score was a subjective quantification of severity, where 0 was normal and 4 was severe inflammation. The myotoxicity score was determined by the nuclear internalization and regeneration of myocytes, two representative characteristics of local anesthetics myotoxicity. Nuclear internalization was characterized by myocytes having nuclei located away from its usual location at the periphery of the cell. Regeneration was characterized by the presence of shrunken myocytes with basophilic cytoplasm. The scoring scale was as follows: 0=normal; 1=per fascicular internalization; 2=deep internalization (>5 cell layers); 3=perifascicular regeneration; 4=deep tissue regeneration (>5 cell layers); 5=hemefascicular regeneration; 6=holofascicular regeneration.

The next data set concerns sciatic nerve. Description: Sciatic nerve blockade, sensory (modified hotplate test). Format: in vivo, rats. Particulars: 0.3 mL at the sciatic nerve; bupivacaine 5 mg/mL (15.4 mM); DexP 25 mM where present; mean+/−SD. The procedure:
Sciatic nerve blockade. Under brief isoflurane-oxygen anesthesia, the animals were injected with 0.3 mL of test material using a 23 G needle, which was introduced postero-medial to the greater trochanter until contact with bone.
Sensory nerve block was assessed by a modified hotplate test, as reported previously. The plantar surface of the rat's hind paw was placed on a pre-heated hot plate at 56° C. The time (termed thermal latency) that the animal would leave its hindpaw on the hotplate was recorded. Longer latencies reflected deeper degrees of local anesthesia. Pristine animals have latencies of about 2 s. After 12 s, the hindpaw was removed from the hotplate by the investigator to avoid tissue thermal injury or the development of hyperalgesia. Measurements were repeated 3 times at each timepoint. The duration of block was calculated as the time required for thermal latency to return to a value of 7 s from a higher value; 7 s is the midpoint between a baseline thermal latency of 2 seconds in adult rats, and a maximal latency of 12 s.

Take hydrocortisone phosphate disodium: the Gelation result in data set [1] (Ba^2+ concentration 2.5) is “L”; in data set [1] (Ba^2+ concentration 6.25), “L”; in data set [1] (Ba^2+ concentration 12.5) it was “P−>H”; in data set [1] (Ba^2+ concentration 25) it was “P−>H”; in data set [1] (Ca^2+ concentration 2.5) it was “L/H”; in data set [1] (Ca^2+ concentration 6.25), “L/H”. The Gelation entry in data set [1] (Ca^2+ concentration 12.5) and in data set [1] (Ca^2+ concentration 25) was “H” throughout.

For the compound `C[C@H]1C[C@H]2[C@@H]3CCC4=CC(=O)C=C[C@]4(C)[C@@]3(F)[C@@H](O)C[C@]2(C)[C@@]1(O)C(=O)COP(=O)(O)O` [Betamethasone phosphate, betamethasone phosphate disodium], the Gelation result was “L” in data set [1] (Ba^2+ concentration 2.5); “L” in data set [1] (Ba^2+ concentration 6.25); “P−>H” in data set [1] (Ba^2+ concentration 12.5); “P−>H” in data set [1] (Ba^2+ concentration 25); “L/H” in data set [1] (Ca^2+ concentration 2.5); “L/H” in data set [1] (Ca^2+ concentration 6.25). Further, the Gelation result in data set [1] (Ca^2+ concentration 12.5) and in data set [1] (Ca^2+ concentration 25) was “H” in each case.

On to `C[C@@H]1C[C@H]2[C@@H]3CCC4=CC(=O)C=C[C@]4(C)[C@@]3(F)[C@@H](O)C[C@]2(C)[C@@]1(O)C(=O)COP(=O)(O)O` [Dexamethasone phosphate, dexamethasone phosphate disodium], for which the Gelation entry in data set [1] (Ba^2+ concentration 2.5) is listed as “L”; in data set [1] (Ba^2+ concentration 6.25) it was “L”; in data set [1] (Ba^2+ concentration 12.5), “P−>H”; in data set [1] (Ba^2+ concentration 25), “P−>H”; in data set [1] (Ca^2+ concentration 2.5), “L/H”; in data set [1] (Ca^2+ concentration 6.25) it was “L/H”. The Gelation entry in data set [1] (Ca^2+ concentration 12.5) and in data set [1] (Ca^2+ concentration 25) was “H” each time. In addition, the “Cell viability / cytotoxicity” value with C2C12 cells is “concentration-dependent reduction of cell viability”.

As for `CCCCN1CCCCC1C(=O)Nc1c(C)cccc1C` (centres unmarked) [Bupivacaine solution, bupivacaine hydrochloride], the figures for the “Inflammation (range 0-4)” value in data set [2] (4 days) and in data set [2] (14 days) were 2.0 (1.0-2.5) and 1.0 (0.5-1.0), respectively. Besides, the entries for the “Myotoxicity (range 0-6)” value in data set [2] (4 days) and in data set [2] (14 days) were 3.0 (3.0-3.75) and 1.0 (0.5-1.0), respectively. Moreover, the “Tissue reaction (histology, H&E)” value in data set [2] (day 4 after injection at the sciatic nerve, listed as free bupivacaine solution, hydrochloride) is “inflammatory infiltrate consisting primarily of macrophages with lymphocytes and occasional neutrophils; also recorded: evidence of myotoxicity”; in data set [2] (day 14 after injection at the sciatic nerve), “diminished compared to reaction at day 4, almost back to normal”. In addition, the “Duration of sensory blockade” value in the data set with sciatic nerve is 126 ± 38 min.

Source of the values: US20190125669A1, “SYSTEMS AND METHODS FOR STEROIDAL GELS” (Children's Medical Center Corporation, priority 2016, published 2019).
